{"source": "patent US10501413B2", "about": "“Inhibitors of the Notch transcriptional activation complex and methods for use of the same” (UNIVERSITY OF MIAMI, priority 2015, dated 2019)", "test_system": "MAML1 and Notch1 occupancy on HES1 promoter in OE33 and 786-0 cells", "experiment": "Chromatin immunoprecipitation (ChIP) on the HES1 locus", "format": "cell-based, human", "conditions": "24 hours", "protocol": "The effect of inhibitor treatment on the assembly of the NTC in cells was investigated.\nCells (8×10^6 OE33 cells or 10×10^6 786-0 cells) were plated onto a 15 cm tissue culture dish a day prior to treatment. Cells were then treated for 24 hours with (N—[N-(3,5-difluorophenacetyl)-L-alanyl]-S-phenylglycine t-butyl ester (“DAPT”, 5 μM), Inhibitor No. 1-134-83 (25 μM), or DMSO vehicle. Following treatment, cells were cross-linked for 10 minutes with 1% formaldehyde. The reaction was then stopped by adding […] glycine. Cells were collected in SDS lysis buffer (1% SDS, 10 mM EDTA, 50 mM Tris-HCl pH 8.0) and sonicated to yield chromatin fragments of approximately 300 to 800 bp (8 minutes at high level for OE33 cells; 5 minutes at medium level for 786-0 cells in BIORUPTOR UCD-200 sonicator). Lysates were divided into equal parts and immunoprecipitated with either α-Notch1 (A301-894A, Bethyl Laboratories) or α-MAML1 (12166s, Cell Signaling Technology) antibody. Protein:DNA immunoprecipitates were then reverse cross-linked at 65° C. in 200 mM NaCl for 4 hours, followed by incubation with RNase A and proteinase K. DNA was then purified using a PCR purification kit (28104,\nQiagen). Immunoprecipitated DNA was then detected by SYBR green qPCR using HES1 specific oligonucleotide primers (forward: 5′CGTGTCTCCTCCTCCCATT3′; reverse: 5′GGGGGATTCCGCTGTTAT3′).", "data": [{"smiles": "CCOC(=O)COc1ccc(/C=C2\\SC(=S)NC2=O)cc1OC", "note": "[1-134-83]", "values": [{"measurement": "occupancy of MAML1 on the HES1 promoter", "value": "decreased the occupancy"}, {"measurement": "occupancy of NOTCH1 on the HES1 promoter", "value": "did not affect"}]}]}
